From ChEMBL document CHEMBL5291721, “A preclinical secondary pharmacology resource illuminates target-adverse drug reaction associations of marketed drugs” (Nat Commun, 2023)

What was measured:
[1] = target: T1, Type-1 angiotensin II receptor (Homo sapiens, UniProt P30556)
T1 sequence (P30556 whole entry): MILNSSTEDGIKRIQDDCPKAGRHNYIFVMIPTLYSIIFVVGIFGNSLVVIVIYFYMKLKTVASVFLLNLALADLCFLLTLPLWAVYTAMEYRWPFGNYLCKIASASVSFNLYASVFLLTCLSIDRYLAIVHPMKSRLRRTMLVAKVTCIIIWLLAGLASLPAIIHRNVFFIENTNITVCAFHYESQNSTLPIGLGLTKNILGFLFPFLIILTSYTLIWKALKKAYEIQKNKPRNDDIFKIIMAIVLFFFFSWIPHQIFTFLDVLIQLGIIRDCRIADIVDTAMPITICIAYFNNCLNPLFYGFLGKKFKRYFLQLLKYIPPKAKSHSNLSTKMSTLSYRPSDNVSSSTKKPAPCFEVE

[2] = target: T2, Adenosine receptor A3 (Homo sapiens, UniProt P0DMS8)
T2 sequence (P0DMS8 whole entry): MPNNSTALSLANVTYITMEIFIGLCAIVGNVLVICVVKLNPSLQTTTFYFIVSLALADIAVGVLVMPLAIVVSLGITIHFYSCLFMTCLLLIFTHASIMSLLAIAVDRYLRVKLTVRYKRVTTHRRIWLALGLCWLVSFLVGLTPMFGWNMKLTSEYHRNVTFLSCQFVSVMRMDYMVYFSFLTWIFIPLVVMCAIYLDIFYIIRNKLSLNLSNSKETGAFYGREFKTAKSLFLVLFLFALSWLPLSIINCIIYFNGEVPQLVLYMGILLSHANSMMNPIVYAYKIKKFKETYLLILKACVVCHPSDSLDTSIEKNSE

[3] = target: Neuronal acetylcholine receptor subunit alpha-4 (Homo sapiens, UniProt P43681)
[4] = target: T3, Progesterone receptor (Homo sapiens, UniProt P06401); assay type: functional
T3 sequence (P06401 whole entry): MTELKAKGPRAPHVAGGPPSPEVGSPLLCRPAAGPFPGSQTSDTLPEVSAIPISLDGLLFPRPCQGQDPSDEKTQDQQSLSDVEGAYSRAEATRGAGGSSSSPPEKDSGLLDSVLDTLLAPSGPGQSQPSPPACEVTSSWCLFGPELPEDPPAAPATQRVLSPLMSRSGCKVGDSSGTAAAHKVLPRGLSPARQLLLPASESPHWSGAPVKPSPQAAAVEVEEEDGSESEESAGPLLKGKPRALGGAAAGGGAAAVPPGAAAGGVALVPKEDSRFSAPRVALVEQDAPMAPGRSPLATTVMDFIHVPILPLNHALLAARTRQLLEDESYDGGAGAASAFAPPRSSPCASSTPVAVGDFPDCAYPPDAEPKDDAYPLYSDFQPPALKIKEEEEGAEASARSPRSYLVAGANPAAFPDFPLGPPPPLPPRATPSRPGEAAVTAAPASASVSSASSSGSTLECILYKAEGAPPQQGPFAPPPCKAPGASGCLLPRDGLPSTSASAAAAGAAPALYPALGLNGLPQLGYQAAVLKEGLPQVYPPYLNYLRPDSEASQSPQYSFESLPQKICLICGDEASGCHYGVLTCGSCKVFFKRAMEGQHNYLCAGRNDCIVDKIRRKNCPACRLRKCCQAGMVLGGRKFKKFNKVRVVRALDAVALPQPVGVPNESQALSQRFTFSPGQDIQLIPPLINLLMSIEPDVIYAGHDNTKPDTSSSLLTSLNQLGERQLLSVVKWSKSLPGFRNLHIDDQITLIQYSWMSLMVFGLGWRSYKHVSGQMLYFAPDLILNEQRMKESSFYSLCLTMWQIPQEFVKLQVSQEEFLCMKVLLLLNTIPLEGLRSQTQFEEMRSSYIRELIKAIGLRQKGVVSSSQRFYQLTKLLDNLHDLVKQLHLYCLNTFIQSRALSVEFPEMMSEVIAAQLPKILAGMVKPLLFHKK

[5] = target: 5-hydroxytryptamine receptor 2A (Homo sapiens, UniProt P28223); assay type: functional, cell-based
[6] = target: Growth hormone secretagogue receptor type 1 (Homo sapiens, UniProt Q92847)
[7] = target: Vasopressin V2 receptor (Homo sapiens, UniProt P30518)
[8] = target: Vasopressin V1a receptor (Homo sapiens, UniProt P37288)
[9] = target: Muscarinic acetylcholine receptor M3 (Homo sapiens, UniProt P20309)
[10] = target: T4, Amine oxidase [flavin-containing] A (Homo sapiens, UniProt P21397); assay type: functional
T4 sequence (P21397 whole entry): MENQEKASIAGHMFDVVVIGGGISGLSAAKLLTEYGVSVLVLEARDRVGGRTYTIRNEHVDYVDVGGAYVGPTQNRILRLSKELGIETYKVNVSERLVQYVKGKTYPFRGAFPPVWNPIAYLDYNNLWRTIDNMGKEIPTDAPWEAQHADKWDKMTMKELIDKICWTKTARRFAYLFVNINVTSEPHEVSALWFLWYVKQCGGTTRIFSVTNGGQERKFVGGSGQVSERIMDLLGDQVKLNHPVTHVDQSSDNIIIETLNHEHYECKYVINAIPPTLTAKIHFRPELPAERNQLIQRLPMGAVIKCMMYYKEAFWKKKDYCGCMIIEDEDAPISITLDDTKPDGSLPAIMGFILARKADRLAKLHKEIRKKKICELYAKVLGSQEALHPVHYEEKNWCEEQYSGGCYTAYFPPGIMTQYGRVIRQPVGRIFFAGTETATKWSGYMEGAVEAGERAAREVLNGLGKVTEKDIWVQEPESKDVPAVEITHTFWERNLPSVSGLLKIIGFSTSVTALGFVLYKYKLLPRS

[11] = target: Glutamate receptor ionotropic, NMDA 1 (Rattus norvegicus, UniProt P35439)
[12] = target: Sodium-dependent dopamine transporter (Homo sapiens, UniProt Q01959)
Further: assay procedure not described here.

Chain of Sodium-dependent dopamine transporter (Q01959 whole entry): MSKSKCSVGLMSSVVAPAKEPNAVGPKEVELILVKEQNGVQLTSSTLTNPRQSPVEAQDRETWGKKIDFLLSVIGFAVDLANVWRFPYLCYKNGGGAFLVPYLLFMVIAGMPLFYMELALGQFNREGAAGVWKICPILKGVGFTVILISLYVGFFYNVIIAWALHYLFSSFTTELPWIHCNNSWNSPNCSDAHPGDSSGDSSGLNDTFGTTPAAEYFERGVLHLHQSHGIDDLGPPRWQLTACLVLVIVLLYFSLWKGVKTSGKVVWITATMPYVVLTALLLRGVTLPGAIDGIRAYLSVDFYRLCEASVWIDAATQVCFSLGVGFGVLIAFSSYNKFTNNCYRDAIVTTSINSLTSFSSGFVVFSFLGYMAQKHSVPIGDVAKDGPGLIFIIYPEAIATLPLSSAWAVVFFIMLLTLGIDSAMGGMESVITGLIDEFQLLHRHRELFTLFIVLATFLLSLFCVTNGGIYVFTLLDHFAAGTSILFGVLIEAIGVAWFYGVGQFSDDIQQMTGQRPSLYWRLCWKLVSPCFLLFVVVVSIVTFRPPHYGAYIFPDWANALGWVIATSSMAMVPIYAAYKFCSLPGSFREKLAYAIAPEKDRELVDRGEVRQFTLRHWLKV
Chain of Vasopressin V1a receptor (P37288 whole entry): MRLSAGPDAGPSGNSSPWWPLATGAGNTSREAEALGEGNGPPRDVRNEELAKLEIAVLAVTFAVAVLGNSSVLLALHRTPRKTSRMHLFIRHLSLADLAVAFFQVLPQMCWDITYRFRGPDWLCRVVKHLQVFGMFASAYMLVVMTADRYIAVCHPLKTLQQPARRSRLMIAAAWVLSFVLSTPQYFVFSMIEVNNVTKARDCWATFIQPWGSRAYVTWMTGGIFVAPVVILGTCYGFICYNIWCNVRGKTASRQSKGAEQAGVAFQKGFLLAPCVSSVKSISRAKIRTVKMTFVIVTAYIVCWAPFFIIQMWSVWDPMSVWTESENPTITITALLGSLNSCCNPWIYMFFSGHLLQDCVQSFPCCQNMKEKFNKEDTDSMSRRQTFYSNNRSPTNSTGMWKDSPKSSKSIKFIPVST
Chain of Muscarinic acetylcholine receptor M3 (P20309 whole entry): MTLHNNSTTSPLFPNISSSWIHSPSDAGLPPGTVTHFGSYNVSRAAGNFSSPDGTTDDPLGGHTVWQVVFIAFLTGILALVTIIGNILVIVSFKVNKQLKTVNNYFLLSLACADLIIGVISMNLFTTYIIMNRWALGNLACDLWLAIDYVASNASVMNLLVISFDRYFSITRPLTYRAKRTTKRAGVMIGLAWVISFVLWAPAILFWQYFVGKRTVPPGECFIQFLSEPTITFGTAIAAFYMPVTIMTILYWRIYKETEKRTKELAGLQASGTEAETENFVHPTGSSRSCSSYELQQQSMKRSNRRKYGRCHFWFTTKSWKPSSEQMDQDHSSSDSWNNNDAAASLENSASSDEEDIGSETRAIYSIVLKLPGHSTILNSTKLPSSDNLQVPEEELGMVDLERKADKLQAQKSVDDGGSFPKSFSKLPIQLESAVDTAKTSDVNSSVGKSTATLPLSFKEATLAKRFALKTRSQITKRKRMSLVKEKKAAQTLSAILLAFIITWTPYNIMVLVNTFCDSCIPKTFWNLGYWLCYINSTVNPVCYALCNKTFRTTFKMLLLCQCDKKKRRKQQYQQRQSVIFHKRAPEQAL
Chain of Vasopressin V2 receptor (P30518 whole entry): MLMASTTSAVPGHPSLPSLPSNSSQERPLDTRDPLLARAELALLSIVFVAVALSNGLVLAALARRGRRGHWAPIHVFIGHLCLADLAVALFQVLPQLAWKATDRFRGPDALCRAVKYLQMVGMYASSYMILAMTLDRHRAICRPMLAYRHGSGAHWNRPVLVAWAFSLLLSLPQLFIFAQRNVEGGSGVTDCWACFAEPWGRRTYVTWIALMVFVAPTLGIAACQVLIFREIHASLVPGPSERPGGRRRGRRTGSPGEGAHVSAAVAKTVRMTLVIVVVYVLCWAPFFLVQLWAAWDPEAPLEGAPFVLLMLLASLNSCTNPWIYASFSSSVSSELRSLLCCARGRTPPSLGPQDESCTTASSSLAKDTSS
Chain of Growth hormone secretagogue receptor type 1 (Q92847 whole entry): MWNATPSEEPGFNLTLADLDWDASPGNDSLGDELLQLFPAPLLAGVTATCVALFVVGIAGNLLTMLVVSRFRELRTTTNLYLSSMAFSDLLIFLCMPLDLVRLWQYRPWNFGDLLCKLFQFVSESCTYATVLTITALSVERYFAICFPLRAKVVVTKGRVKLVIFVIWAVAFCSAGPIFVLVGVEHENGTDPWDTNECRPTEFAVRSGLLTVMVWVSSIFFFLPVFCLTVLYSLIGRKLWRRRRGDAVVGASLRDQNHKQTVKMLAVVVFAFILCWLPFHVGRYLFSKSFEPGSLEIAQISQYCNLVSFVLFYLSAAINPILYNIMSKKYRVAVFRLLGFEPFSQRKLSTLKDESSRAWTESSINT
Chain of 5-hydroxytryptamine receptor 2A (P28223 whole entry): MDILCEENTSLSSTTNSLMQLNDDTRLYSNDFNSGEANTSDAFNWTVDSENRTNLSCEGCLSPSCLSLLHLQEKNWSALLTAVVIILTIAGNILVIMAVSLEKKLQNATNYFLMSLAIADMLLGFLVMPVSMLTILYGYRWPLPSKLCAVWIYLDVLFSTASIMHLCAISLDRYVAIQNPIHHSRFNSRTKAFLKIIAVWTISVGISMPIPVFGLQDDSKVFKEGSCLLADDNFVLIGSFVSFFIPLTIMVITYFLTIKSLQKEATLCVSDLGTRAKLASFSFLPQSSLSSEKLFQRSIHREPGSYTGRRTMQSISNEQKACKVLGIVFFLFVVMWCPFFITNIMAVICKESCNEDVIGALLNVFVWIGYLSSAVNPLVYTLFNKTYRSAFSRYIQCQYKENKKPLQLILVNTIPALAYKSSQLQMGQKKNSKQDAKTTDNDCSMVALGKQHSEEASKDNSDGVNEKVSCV
Chain of Neuronal acetylcholine receptor subunit alpha-4 (P43681 whole entry): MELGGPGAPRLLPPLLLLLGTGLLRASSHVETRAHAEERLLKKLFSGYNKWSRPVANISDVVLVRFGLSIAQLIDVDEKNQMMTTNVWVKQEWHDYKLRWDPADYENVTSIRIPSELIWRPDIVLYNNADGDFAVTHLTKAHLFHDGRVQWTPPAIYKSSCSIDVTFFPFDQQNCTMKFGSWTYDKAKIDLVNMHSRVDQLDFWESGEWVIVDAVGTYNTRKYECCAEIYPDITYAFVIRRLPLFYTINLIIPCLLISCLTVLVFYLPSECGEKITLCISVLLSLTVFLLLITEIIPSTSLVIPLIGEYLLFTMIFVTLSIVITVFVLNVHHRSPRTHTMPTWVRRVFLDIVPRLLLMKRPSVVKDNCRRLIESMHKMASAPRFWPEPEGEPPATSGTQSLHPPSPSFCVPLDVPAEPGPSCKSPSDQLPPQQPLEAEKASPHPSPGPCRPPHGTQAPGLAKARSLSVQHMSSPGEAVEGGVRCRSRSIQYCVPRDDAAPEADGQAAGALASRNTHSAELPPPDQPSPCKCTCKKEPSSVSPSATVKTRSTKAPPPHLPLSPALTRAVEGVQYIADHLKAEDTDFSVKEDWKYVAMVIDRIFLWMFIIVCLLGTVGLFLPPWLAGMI

SMILES	AC50 [1]	AC50 [2]	AC50 [3]	AC50 [4]	AC50 [5]	AC50 [6]	AC50 [7]	AC50 [8]	AC50 [9]	AC50 [10]	AC50 [11]	AC50 [12]
CCN1CCCC1CNC(=O)c1cc(S(=O)(=O)CC)ccc1OC (configuration not stated) [SULTOPRIDE]	> 30 µM	> 30 µM	> 30 µM	> 30 µM	> 30 µM	> 30 µM	> 30 µM	> 30 µM	> 30 µM	> 30 µM	> 30 µM	> 30 µM
CC(C(=O)O)c1ccc2c(c1)CC(=O)c1ccccc1S2 (configuration not stated) [ZALTOPROFEN]	> 30 µM	> 30 µM	> 30 µM	> 30 µM	> 30 µM	> 30 µM	> 30 µM	> 30 µM	> 30 µM	> 30 µM	> 30 µM	> 30 µM
CCc1cc2c(s1)-n1c(C)nnc1CN=C2c1ccccc1Cl [ETIZOLAM]	> 30 µM	> 30 µM	> 30 µM	> 30 µM	> 30 µM	> 30 µM	> 30 µM	> 30 µM	> 30 µM	> 30 µM	> 30 µM	> 30 µM
CCCN1CCCC[C@H]1C(=O)Nc1c(C)cccc1C [ROPIVACAINE]	> 30 µM	> 30 µM	> 30 µM	> 30 µM	> 30 µM	> 30 µM	> 30 µM	> 30 µM	> 30 µM	> 30 µM	> 30 µM	> 30 µM
CC/C=C\C/C=C\C/C=C\C/C=C\C/C=C\CCCC(=O)OCC [ICOSAPENT ETHYL]	> 30 µM	18 µM	> 30 µM	> 30 µM	> 30 µM	> 30 µM	> 10 µM	> 30 µM	> 30 µM	> 30 µM	> 30 µM	> 30 µM
OC[C@H]1O[C@@H](Oc2cc(O)cc(/C=C/c3ccc(O)cc3)c2)[C@H](O)[C@@H](O)[C@@H]1O [PICEID]	> 30 µM	> 30 µM	> 30 µM	> 30 µM	> 30 µM	> 30 µM	> 30 µM	> 30 µM	> 30 µM	> 30 µM	> 30 µM	> 30 µM
CO/N=C(\C(=O)N[C@@H]1C(=O)N2C(C(=O)O)=C(CSc3nc(=O)c(=O)[nH]n3C)CS[C@H]12)c1csc(N)n1 [CEFTRIAXONE]	> 30 µM	> 30 µM	> 30 µM	> 30 µM	> 30 µM	> 30 µM	> 30 µM	> 30 µM	> 30 µM	> 30 µM	> 30 µM	> 30 µM
CC(C)(C)NCC(O)c1ccccc1Cl (configuration not stated) [TULOBUTEROL]	> 30 µM	> 30 µM	> 30 µM	> 30 µM	> 30 µM	> 30 µM	> 30 µM	> 30 µM	> 30 µM	> 30 µM	> 30 µM	> 30 µM
COc1cc2[nH]c(C)c(CCN3CCN(c4ccccc4)CC3)c2cc1OC [OXYPERTINE]	> 30 µM	20 µM	27 µM	> 30 µM	0.41 µM	> 30 µM	> 30 µM	> 30 µM	> 30 µM	> 30 µM	> 30 µM	2.3 µM
CN1CCN=C(c2ccccc2)c2cc(Cl)ccc21 [MEDAZEPAM]	> 30 µM	15 µM	30 µM	> 30 µM	> 30 µM	> 30 µM	> 30 µM	> 30 µM	> 30 µM	> 30 µM	> 30 µM	22 µM
COc1cc(C(=O)OCc2cccc(COC(=O)c3cc(OC)c(OC)c(OC)c3)n2)cc(OC)c1OC [PIROZADIL]	> 30 µM	> 30 µM	> 30 µM	> 30 µM	> 30 µM	> 30 µM	> 30 µM	> 30 µM	> 30 µM	> 30 µM	> 30 µM	> 30 µM
CCC(NC(C)C)C(O)c1ccc(O)c2[nH]c(=O)ccc12 (configuration not stated) [PROCATEROL]	> 30 µM	> 30 µM	> 30 µM	> 30 µM	> 30 µM	> 30 µM	> 30 µM	> 30 µM	> 30 µM	> 30 µM	> 30 µM	> 30 µM
Cn1c(=O)c2c(ncn2CCOC(=O)C(C)(C)Oc2ccc(Cl)cc2)n(C)c1=O [THEOFIBRATE]	> 30 µM	> 30 µM	> 30 µM	> 30 µM	> 30 µM	> 30 µM	> 30 µM	> 30 µM	> 30 µM	> 30 µM	> 30 µM	> 30 µM
O=C(NCCO[N+](=O)[O-])c1cccnc1 [NICORANDIL]	> 30 µM	> 30 µM	> 30 µM	> 30 µM	> 30 µM	> 30 µM	> 30 µM	> 30 µM	> 30 µM	> 30 µM	> 30 µM	> 30 µM
CC(C)N(CCCCOCC(=O)O)c1cnc(-c2ccccc2)c(-c2ccccc2)n1	17 µM	10.1 µM	> 30 µM	> 30 µM	> 30 µM	> 30 µM	> 30 µM	> 30 µM	> 30 µM	> 30 µM	> 30 µM	> 30 µM
C[N+]12CCC(CC1)C(OC(=O)C(O)(c1ccccc1)c1ccccc1)C2 (configuration not stated)	> 30 µM	> 30 µM	> 30 µM	> 30 µM	> 30 µM	> 30 µM	> 30 µM	> 30 µM	0.0019 µM	> 30 µM	> 30 µM	> 30 µM
